Source: ChEMBL document CHEMBL1148473, “Sabadinine: a potential non-peptide anti-severe acute-respiratory-syndrome agent identified using structure-aided design” (J Med Chem, 2004)
Activity calls are given as the source filed them. The rule behind the calls is not given here.

Tests used:
Homo sapiens = species: Homo sapiens; assay: Compound was tested for inhibition of a proteinase 3CL pro of human coronavirus; Inhibited
Coronaviridae = assay: Evaluated for effect on murine coronavirus replication; No effect; format: functional, organism-based
[1] = tested on: Murine hepatitis virus strain A59; assay: Evaluated for cellular toxicity against mouse hepatitis virus strain A59 up to 100 uM, Not toxic; format: functional, organism-based

Q: CC1CCC2N(C1)CC1[C@](O)(C(O)C[C@@]3(O)C4CCC5C6(O)OC4(C[C@@]13O)C5(C)CCC6O)[C@]2(C)O (stereo partly drawn) was tested. Which Activity (Homo sapiens) did it give?
A: Inhibited

Q: What about the Activity (Coronaviridae) of the same compound?
A: inactive

Q: What about the Activity [1] of the same compound?
A: Not toxic
